Results taken from PubChem BioAssay (NCI).
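Tested at 5 concentrations; 48 h exposure; 96-well plates; endpoints linearly interpolated, else capped at highest concentration. TGI is the concentration that stops growth completely.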

Columns and labels:
Test in all cases: NCI tumour cell line growth inhibition, 48 h
LOX IMVI melanoma = tested on: LOX IMVI melanoma
NCI-H226 lung = tested on: NCI-H226 lung
SR leukemia = tested on: SR leukemia
OVCAR-5 ovarian = tested on: OVCAR-5 ovarian
HS 578T breast = tested on: HS 578T breast
CCRF-CEM leukemia = tested on: CCRF-CEM leukemia
SF-268 CNS = tested on: SF-268 CNS
PC-3 prostate = tested on: PC-3 prostate
MDA-N = tested on: MDA-N
A498 renal = tested on: A498 renal
HCT-116 colon = tested on: HCT-116 colon
SNB-19 CNS = tested on: SNB-19 CNS
KM12 colon = tested on: KM12 colon
NCI/ADR-RES ovarian = tested on: NCI/ADR-RES ovarian
MDA-MB-231 breast = tested on: MDA-MB-231 breast
CAKI-1 renal = tested on: CAKI-1 renal

| SMILES | TGI (LOX IMVI melanoma) [µM] | TGI (NCI-H226 lung) [µM] | TGI (SR leukemia) [µM] | TGI (OVCAR-5 ovarian) [µM] | TGI (HS 578T breast) [µM] | TGI (CCRF-CEM leukemia) [µM] | TGI (SF-268 CNS) [µM] | TGI (PC-3 prostate) [µM] | TGI (MDA-N) [µM] | TGI (A498 renal) [µM] | TGI (HCT-116 colon) [µM] | TGI (SNB-19 CNS) [µM] | TGI (KM12 colon) [µM] | TGI (NCI/ADR-RES ovarian) [µM] | TGI (MDA-MB-231 breast) [µM] | TGI (CAKI-1 renal) [µM] |
| --- | --- | --- | --- | --- | --- | --- | --- | --- | --- | --- | --- | --- | --- | --- | --- | --- |
| C/C=C/COc1cc(NC(=S)c2ccoc2C)ccc1OC | > 100 | > 100 | > 100 | > 100 | 90.7 | > 100 | > 100 | > 100 | > 100 | > 100 | > 100 | > 100 | > 100 | > 100 | > 100 | > 100 |
| CCOC(=O)C1CCCC1S(=O)(=O)c1ccc(C)cc1 (stereo unspecified) | > 100 | > 100 | > 100 | > 100 | > 100 | > 100 | > 100 | > 100 | > 100 | > 100 | > 100 | > 100 | > 100 | > 100 | > 100 | > 100 |
| COc1cc(OC)c(NC2=NCCO2)cc1Cl | 99.3 | 75.6 | 83.2 | > 100 | > 100 | > 100 | > 100 | 71.8 | 32.3 | 81.5 | 94.5 | > 100 | 39.1 | 91.7 | 64.5 |  |
| CC(C)=CCC[C@@H](C)C1=C(O)C(Nc2ccccc2F)=C(C)C(=O)C1=O | > 100 | > 78.7 | > 100 | > 100 | 54.8 | 5.86 | > 54 | > 100 | > 100 | 67.2 | 47.6 | > 100 | > 100 | 23 | > 100 | 48.2 |
| Nc1nc(SCc2ccccc2[N+](=O)[O-])c2[nH]cnc2n1 | > 100 | 97.5 | > 100 | > 100 | 24.7 | > 94.5 | > 84.6 | > 100 | > 100 | 48.3 | > 100 | > 100 | > 100 | > 100 | > 100 | > 100 |
| COc1cc(C(c2cc(OC)c(OC)c(OC)c2)N2C(=O)CCC2C(=O)O)cc(OC)c1OC (stereo unspecified) |  | > 100 | > 100 | > 100 | > 100 | > 100 | > 100 | > 100 | > 100 | > 100 | > 100 | > 100 | > 100 | > 100 | > 100 | > 100 |
| CCOc1ccc(-n2c(=O)n3c(Nc4ccc(Cl)cc4)nc4c(c(=O)n(C)c(=O)n4C)n3c2=O)cc1 | 44.8 | 74.5 | 51.6 | > 100 | > 100 | 52.9 | > 100 | > 100 | > 100 | 39.4 | 40.2 | > 100 | 30.9 | > 100 | 35.1 | > 100 |
| COc1ccc(CCNC(=S)/N=C\C2=C(O)c3ccccc3C2=O)cc1OC | > 100 | > 100 | > 100 | > 100 | 72.7 | > 100 | > 100 | > 100 | > 100 | > 100 | > 100 | > 100 | > 100 | > 100 | > 100 | > 100 |
| Cc1cc2nc(NS(=O)(=O)c3cc(C)c(Cl)cc3S)[nH]c2cc1C | > 100 |  | > 100 | > 100 | > 100 | 81.8 | > 100 | > 100 | > 100 | > 100 | > 100 | > 100 | > 100 | > 100 | > 100 | > 100 |
| CC1(C)N=C(/C(C#N)=[N+](/[O-])C(=O)c2ccccc2)C(C)(C)N1O | > 100 | > 100 | > 100 | > 100 | > 100 | > 100 | > 100 | > 100 | > 100 |  | > 100 | > 100 | > 100 | > 100 | > 100 | > 100 |
| Cc1ccc(N2C(=O)C(O)=C(C(=O)C(C)(C)C)C2c2ccc([N+](=O)[O-])cc2)cc1 (stereo unspecified) | 36.9 | 43.3 | 24.7 | > 100 | 45.3 | > 100 | 47.8 | > 100 | 69.2 | 68.9 | 29.4 | > 100 | 67.3 | 53.8 | 45.7 | 16.5 |
| O=C1CSC(c2c(O)ccc3ccccc23)N1n1c(=S)[nH]nc(/C=C/c2c(O)ccc3ccccc23)c1=O (stereo unspecified) | 17.5 |  | 10.9 | 38.1 | > 100 | 3.04 | 40.3 | 22.5 | > 100 | 18.4 | 16.6 | 76.6 |  | 14.7 | 20.7 | 11.4 |
| COC(=O)C1(Cc2ccc3c(c2)CCC3)Cc2cc3c(cc2C1=O)CCC3 (stereo unspecified) | > 46.4 | > 46.4 | 33 | > 46.4 | > 46.4 | > 46.4 | > 46.4 | > 46.4 | > 46.4 | > 31.6 | > 46.4 | > 46.4 | > 46.4 | > 46.4 | > 46.4 | > 31.6 |
| O=C(O)C1(CC(CCCN2CCCCC2)c2ccccc2)CCCC1 (stereo unspecified) | > 100 | > 100 | > 100 | > 100 | > 100 | > 100 | > 100 | > 100 | > 100 | > 100 | > 100 | > 100 | > 100 | > 100 | > 100 | > 100 |
| CCC(=O)n1c(=O)n(-c2ccc([N+](=O)[O-])cc2)c(=O)n1C(=O)CC | > 100 | > 100 | > 100 | > 100 | > 100 | > 100 | > 100 | > 100 | > 100 |  | > 100 | > 100 | > 100 | > 100 | > 100 | > 100 |
| OC1NC2CC3NC(O)C(O)NC3CC2NC1O (stereo unspecified) | > 100 | > 100 | > 100 | > 100 | > 100 | > 100 | > 100 | > 100 | > 100 |  | > 100 | > 100 | > 100 | > 100 | > 100 | > 100 |
| CCC(c1nc2ccccc2c(=O)n1NC(=O)C(C)(C)C)C1(O)CCCCC1 (stereo unspecified) |  | > 100 | > 100 | > 100 | > 100 | > 100 | > 100 | > 100 | > 100 | > 100 | > 100 | > 100 | > 100 | > 100 | > 100 | > 100 |
| CC(Nc1cc(=O)n(C)c(=O)[nH]1)c1ccccc1 (stereo unspecified) | > 100 |  | > 100 | > 100 | > 100 | > 100 | > 100 | > 100 | > 100 | > 100 | > 100 | > 100 | > 100 | > 100 | > 100 | > 100 |
| CCC(C)N1CN(c2ccccc2)C2(CCN(CCCC(=O)c3ccc(F)cc3)CC2)C1=O (stereo unspecified) | 10.8 |  | 23.3 | 8.12 | 36.4 | > 100 | 29 | 23.1 | 25.5 | 16.8 | 3.16 |  |  | > 100 | 23.1 | 26.8 |
| C[N+](C)(N)Cc1csc(-c2ccc(Cl)cc2)n1 | > 100 | > 100 | > 100 | > 100 | > 100 |  | > 100 | > 100 | > 100 | > 100 | > 100 | > 100 | > 100 | > 100 | > 100 | > 100 |
| COC(=O)C(Cc1ccccc1)NC(=O)C(CCCN=C(N)N)NC(=O)OCc1ccccc1 (stereo unspecified) | > 100 | > 100 | > 100 | > 100 | > 100 | > 100 | > 100 | > 100 | > 100 |  | > 100 | > 100 | > 100 | > 100 | > 100 | > 100 |
| COc1cc(C2c3cc4c(cc3OC(N3CCOCC3)C2C)OCO4)cc(OC)c1OC (stereo unspecified) | > 53.3 | 11.2 | > 100 | > 65.7 | 0.722 | > 100 | > 100 | > 100 | 0.439 |  | 12.7 | 18.7 | 14 | 2.01 | 37.3 | 23.3 |
| CN(c1ccccc1Cl)S(=O)(=O)c1ccccc1 | > 100 | > 100 | > 100 | > 100 | > 100 | > 100 | > 100 | > 100 | > 100 |  | > 100 | > 100 | > 100 | > 100 | > 100 | > 100 |
